SMILES strings stand for the structures. pIC50: −log10 of the molar value.

T1 sequence (Q96P20 whole entry): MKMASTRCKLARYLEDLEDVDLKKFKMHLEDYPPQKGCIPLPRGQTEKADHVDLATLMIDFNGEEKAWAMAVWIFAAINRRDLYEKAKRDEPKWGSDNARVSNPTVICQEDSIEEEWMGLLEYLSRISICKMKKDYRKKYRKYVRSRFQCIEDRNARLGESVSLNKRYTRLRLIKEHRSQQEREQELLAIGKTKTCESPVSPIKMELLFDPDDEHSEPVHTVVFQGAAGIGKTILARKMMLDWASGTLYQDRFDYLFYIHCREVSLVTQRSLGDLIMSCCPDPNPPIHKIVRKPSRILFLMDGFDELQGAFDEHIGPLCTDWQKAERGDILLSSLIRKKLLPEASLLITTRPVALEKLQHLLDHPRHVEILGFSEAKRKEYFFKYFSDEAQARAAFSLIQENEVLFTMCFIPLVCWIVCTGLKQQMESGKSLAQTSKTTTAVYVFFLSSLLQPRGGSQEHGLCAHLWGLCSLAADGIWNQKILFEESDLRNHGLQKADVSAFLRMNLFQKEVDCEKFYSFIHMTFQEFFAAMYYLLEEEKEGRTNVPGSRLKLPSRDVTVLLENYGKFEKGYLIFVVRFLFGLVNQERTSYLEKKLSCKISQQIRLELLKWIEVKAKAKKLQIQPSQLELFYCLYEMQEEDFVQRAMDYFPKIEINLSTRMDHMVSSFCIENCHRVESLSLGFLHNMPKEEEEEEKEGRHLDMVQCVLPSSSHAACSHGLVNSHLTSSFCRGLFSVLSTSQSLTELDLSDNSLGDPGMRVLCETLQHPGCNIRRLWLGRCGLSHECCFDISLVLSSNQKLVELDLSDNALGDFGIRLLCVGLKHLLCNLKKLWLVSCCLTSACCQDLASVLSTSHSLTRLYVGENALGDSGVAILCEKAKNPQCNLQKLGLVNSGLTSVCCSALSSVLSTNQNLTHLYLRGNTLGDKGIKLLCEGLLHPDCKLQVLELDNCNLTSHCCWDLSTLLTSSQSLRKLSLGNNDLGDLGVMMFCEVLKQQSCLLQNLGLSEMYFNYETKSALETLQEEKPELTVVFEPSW

One experiment addresses T1, human NLRP3 (Homo sapiens, UniProt Q96P20). As to the kind of experiment: Scintillation Proximity (SPA) NLRP3 Assay, displacement of 3H-MCC950. Format: binding. The note with it: Table B, activity class; displacement of 3H-MCC950 from human NLRP3. Summed up: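 Displacement of radioligand 3H-MCC950 (125 nM final) from 350 nM human NLRP3, read by scintillation proximity after 6 h equilibration with PVT beads. Buffer: 20 mM HEPES pH 7.5, 150 mM NaCl, 5 mM MgCl2, 100 μM ADP; compound preincubated 15 min, ligand 60 min, RT. IC50 from specific binding.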
By pIC50 is commonly meant −log10 of the IC50, conventionally taken in molar units. Compound `C[C@H]1C[C@@H](NC(=O)N(C)c2ccc(OC(F)F)cc2F)[C@@H]2CC[C@H]1N2c1nnn[nH]1` (single isomer, unassigned) [57C*] showed a pIC50 of 4.00 to 4.30. With `C[C@H]1C[C@H](NC(=O)N(C)c2ccc(OC(F)F)cc2F)[C@@H]2CC[C@H]1N2c1nnn[nH]1` (single isomer, unassigned) [57D*], the pIC50 was 5.00 to 6.00. Same read-out and setting: under `C[C@@H]1C[C@H](NC(=O)N(C)c2ccc(OC(F)F)c(F)c2F)[C@H]2CC[C@@H]1N2c1nnn[nH]1` (single isomer, unassigned) [58B*] stands < 4.00; under `C[C@H]1C[C@@H](NC(=O)N(C)c2ccc(OC(F)F)c(F)c2F)[C@@H]2CC[C@H]1N2c1nnn[nH]1` (single isomer, unassigned) [58C*], 4.00 to 4.30. The same measure, in the same setting: under `C[C@H]1C[C@H](NC(=O)N(C)c2ccc(OC(F)F)c(F)c2F)[C@@H]2CC[C@H]1N2c1nnn[nH]1` (single isomer, unassigned) [58D*] stands 4.30 to 5.00; under `C[C@@H]1C[C@H](NC(=O)N(C)c2ccc(OC(F)(F)F)c(F)c2F)[C@H]2CC[C@@H]1N2c1nnn[nH]1` (single isomer, unassigned) [59B*], 4.00 to 4.30; under `C[C@H]1C[C@@H](NC(=O)N(C)c2ccc(OC(F)(F)F)c(F)c2F)[C@@H]2CC[C@H]1N2c1nnn[nH]1` (single isomer, unassigned) [59C*], < 4.00. Still for that read-out and setting: under `C[C@H]1C[C@H](NC(=O)N(C)c2ccc(OC(F)(F)F)c(F)c2F)[C@@H]2CC[C@H]1N2c1nnn[nH]1` (single isomer, unassigned) [59D*] stands 4.30 to 5.00; under `C[C@@H]1C[C@H](NC(=O)N(C)c2c(F)cc(C3CC3)cc2F)[C@H]2CC[C@@H]1N2c1nnn[nH]1` (single isomer, unassigned) [60B*], < 4.00; under `C[C@H]1C[C@@H](NC(=O)N(C)c2c(F)cc(C3CC3)cc2F)[C@@H]2CC[C@H]1N2c1nnn[nH]1` (single isomer, unassigned) [60C*], 4.00 to 4.30. The compound `C[C@H]1C[C@H](NC(=O)N(C)c2c(F)cc(C3CC3)cc2F)[C@@H]2CC[C@H]1N2c1nnn[nH]1` (single isomer, unassigned) [60D*] gave a pIC50 of 5.00 to 6.00.

For `C[C@@H]1C[C@H](NC(=O)N(C)c2c(F)cc(OC(F)F)cc2F)[C@H]2CC[C@@H]1N2c1nnn[nH]1` (single isomer, unassigned) [61B*], the pIC50 is < 4.00. The same measure, in the same setting: under `C[C@H]1C[C@@H](NC(=O)N(C)c2c(F)cc(OC(F)F)cc2F)[C@@H]2CC[C@H]1N2c1nnn[nH]1` (single isomer, unassigned) [61C*] stands < 4.00; under `C[C@H]1C[C@H](NC(=O)N(C)c2c(F)cc(OC(F)F)cc2F)[C@@H]2CC[C@H]1N2c1nnn[nH]1` (single isomer, unassigned) [61D*], 4.30 to 5.00. On the same count and under the same terms, to `C[C@@H]1C[C@H](NC(=O)N(C)c2c(F)cc(OC(F)(F)F)cc2F)[C@H]2CC[C@@H]1N2c1nnn[nH]1` (single isomer, unassigned) [62B*] belongs < 4.00.

On to `C[C@H]1C[C@@H](NC(=O)N(C)c2c(F)cc(OC(F)(F)F)cc2F)[C@@H]2CC[C@H]1N2c1nnn[nH]1` (single isomer, unassigned) [62C*], for which the negative-log IC50 (pIC50) is 4.00 to 4.30.

For the compound `C[C@H]1C[C@H](NC(=O)N(C)c2c(F)cc(OC(F)(F)F)cc2F)[C@@H]2CC[C@H]1N2c1nnn[nH]1` (single isomer, unassigned) [62D*], the pIC50 was 4.00 to 4.30. For `C[C@@H]1C[C@H](NC(=O)N(C)c2ccc(OC(F)(F)F)c(OC(F)F)c2)[C@H]2CC[C@@H]1N2c1nnn[nH]1` (single isomer, unassigned) [63B*], the pIC50 is < 4.00. Still for that read-out and setting: to `C[C@H]1C[C@@H](NC(=O)N(C)c2ccc(OC(F)(F)F)c(OC(F)F)c2)[C@@H]2CC[C@H]1N2c1nnn[nH]1` (single isomer, unassigned) [63C*] belongs 4.00 to 4.30; to `C[C@H]1C[C@H](NC(=O)N(C)c2ccc(OC(F)(F)F)c(OC(F)F)c2)[C@@H]2CC[C@H]1N2c1nnn[nH]1` (single isomer, unassigned) [63D*], 4.00 to 4.30; to `C[C@@H]1C[C@H](NC(=O)N(C)c2ccc(OC(F)F)c(OC(F)F)c2)[C@H]2CC[C@@H]1N2c1nnn[nH]1` (single isomer, unassigned) [64B*], < 4.00. Still for that read-out and setting: to `C[C@H]1C[C@@H](NC(=O)N(C)c2ccc(OC(F)F)c(OC(F)F)c2)[C@@H]2CC[C@H]1N2c1nnn[nH]1` (single isomer, unassigned) [64C*] belongs < 4.00; to `C[C@H]1C[C@H](NC(=O)N(C)c2ccc(OC(F)F)c(OC(F)F)c2)[C@@H]2CC[C@H]1N2c1nnn[nH]1` (single isomer, unassigned) [64D*], 5.00 to 6.00. Same read-out and setting: under `CCN(C(=O)N[C@H]1C[C@H](C)[C@H]2CC[C@@H]1N2c1nnn[nH]1)c1ccc(OC(F)F)cc1F` (single isomer, unassigned) [65D*] stands 4.30 to 5.00.

In the case of `O=C(N[C@@H]1CCCN(c2nnn[nH]2)C1)N(c1ccc(Cl)cc1)C1CC1` [Compound 3A, (R)-3-(1-(1H-tetrazol-5-yl)piperidin-3-yl)-1-(4-chlorophenyl)-1-cyclopropylurea], the pIC50 is < 4.00. On the same count and under the same terms, to `C[C@H]1CCN(c2nnn[nH]2)C[C@@H](NC(=O)N(C)c2ccc(C(F)(F)F)c(F)c2)C1` [Compound 9D, 1-(3-fluoro-4-(trifluoromethyl)phenyl)-1-methyl-3-((3S,5S)-5-methyl-1-(1H-tetrazol-5-yl)azepan-3-yl)urea] belongs 5.00 to 6.00; to `C[C@H]1C[C@@H](NC(=O)N(C)c2ccc3ocnc3c2)CN(c2nnn[nH]2)C1` [Compound 34A, 1-(benzo[d]oxazol-5-yl)-1-methyl-3-((3R,5S)-5-methyl-1-(1H-tetrazol-5-yl)piperidin-3-yl)urea], 4.00 to 4.30; to `C[C@H]1C[C@@H](NC(=O)N(C)c2ccc3ncoc3c2)CN(c2nnn[nH]2)C1` [Compound 35A, 1-(benzo[d]oxazol-6-yl)-1-methyl-3-((3R,5S)-5-methyl-1-(1H-tetrazol-5-yl)piperidin-3-yl)urea], 4.30 to 5.00. On the same count and under the same terms, to `C[C@H]1C[C@@H](NC(=O)N(C)c2ccc3ccnn3c2)CN(c2nnn[nH]2)C1` [Compound 36A, 1-methyl-3-((3R,5S)-5-methyl-1-(1H-tetrazol-5-yl)piperidin-3-yl)-1-(pyrazolo[1,5-a]pyridin-6-yl)urea] belongs < 4.00. Regarding `C[C@H]1C[C@@H](NC(=O)N(C)c2ccc3nccn3c2)CN(c2nnn[nH]2)C1` [Compound 37A, 1-(imidazo[1,2-a]pyridin-6-yl)-1-methyl-3-((3R,5S)-5-methyl-1-(1H-tetrazol-5-yl)piperidin-3-yl)urea], the pIC50 is < 4.00. Same read-out and setting: to `C[C@H]1C[C@@H](NC(=O)N(C)c2ccc3cnoc3c2)CN(c2nnn[nH]2)C1` [Compound 38A, 1-(benzo[d]isoxazol-6-yl)-1-methyl-3-((3R,5S)-5-methyl-1-(1H-tetrazol-5-yl)piperidin-3-yl)urea] belongs 4.30 to 5.00. On the same count and under the same terms, to `C[C@H]1C[C@@H](NC(=O)N(C)c2ccc(OC(F)F)cc2)CN(c2nnn[nH]2)C1` [Compound 39A, 1-(4-(difluoromethoxy)phenyl)-1-methyl-3-((3R,5S)-5-methyl-1-(1H-tetrazol-5-yl)piperidin-3-yl)urea] belongs > 6.00.

Staying with this experiment, now noted: Table C; displacement of 3H-MCC950 from human NLRP3.
As for `C[C@H]1C[C@@H](NC(=O)N(C)c2ccc(OC(F)F)cc2)CN(c2nnn[nH]2)C1` [Compound 39A, 1-(4-(difluoromethoxy)phenyl)-1-methyl-3-((3R,5S)-5-methyl-1-(1H-tetrazol-5-yl)piperidin-3-yl)urea], the pIC50 was 6.09.

Another experiment addresses T1, human NLRP3. Description: Human PBMC NLRP3 Assay (LPS priming, ATP stimulation, cytokine measurement). Format: cell-based. Further details: host or cells: human PBMCs (A2); human whole blood from healthy volunteers (A3). The note with it: Table C; human PBMC, LPS + ATP. The procedure: Reagents: Human PBMCs (Normal): iXCells Cat #10HU-003; RPMI 1640 medium with GlutaMAX: ThermoFisher Cat #61870127 (Complete Media: 4.5 g/L D-glucose, 10% FBS, 100 mM NaPyr, 1% Pen/Strep, 10 mM HEPES and 0.05 mM of ®-mercaptoethanol; Assay Media: 4.5 g/L D-glucose, 100 mM NaPyr, 1% Pen/Strep, 10 mM HEPES and 0.05 mM of mercaptoethanol; 96-well V-bottom Plates: Costar Cat #3894; LPS (E. coli O26:B6): Sigma Cat #L2654, stock 5 mg/mL in PBS; ATP: Sigma Cat #A6419, prepared in a 250 mM stock in 1 M HEPES (adjusted to pH 7.4).
Cryopreserved PBMCs were rapidly thawed in a 37° C. water bath for 2 min. Cells were then centrifuged at 1200 RPM for 5 min and resuspended in ˜50 mL of fresh RPMI 1640 Complete Medium. A count was undertaken using a hemocytometer and adjusted to 2.5×10^5 cells/mL. V-shaped 96-well plates were seeded with 200 μL of PBMCs (5×10^4) per well and subsequently incubated overnight at 37° C. with 5% CO2. Assay Media was then prepared containing 100 ng/ml of LPS. PBMCs were then centrifuged at 1,200 RPM for 5 min, serum containing media was aspirated, and 150 μL/well of Assay Media+LPS was immediately added. Assay Media without LPS was added in the untreated control wells. Cells were then primed with LPS for 4 h at 37° C. with 5% CO2. A concentration response curve (CRC) was prepared of 1000× test compound in 100% DMSO. The CRC was then diluted 1:50 in Assay Media and then further diluted by 1:5× in Assay Media resulting in a final 4×CRC in 0.4% DMSO/Assay Media. 50 μL/well of 4× test compound CRC or vehicle (0.4% DMSO/Assay Media) was then transferred into each well and subsequently incubated for 30 min at 37° C. with 5% CO2. Cells were stimulated by adding 4 μL of 250 mM ATP, using a 250 mM stock prepared in 1 M Hepes without further dilution (for a final concentration of 5 mM), for 1 h at 37° C. with 5% CO2 Plates were then centrifuged at 1200 RPM for 5 min; and 50 μl of the media was transferred to a clean 96-well storage plate for cytokine measurements using the mesoscale platform, and stored at −80° C. until analyzed. Compounds were added 30 minutes before priming the cells with LPS when TNFα was required to be quantified in the cytokine panel to confirm selectivity.
PBMC NLRP3 IC50 assay results, as a measurement of cellular potency, are provided in Table B. “A” activity=<0.01 uM; “B” activity=0.01-0.1 uM; “C” activity=>0.1-0.5 uM; “D” activity=>0.5 uM.
For the compound `CN(C(=O)N[C@@H]1CCN(c2nnn[nH]2)C1)c1ccc(Cl)cc1` (single isomer, unassigned) [Comparative Example A*, reference compound], the pIC50 was < 4.00. Same read-out and setting: under `CN(C(=O)N(C)[C@@H]1CCCN(c2nnn[nH]2)C1)c1ccc(Cl)cc1` [Comparative Example C2, (R)-1-(1-(1H-tetrazol-5-yl)piperidin-3-yl)-3-(4-chlorophenyl)-1,3-dimethylurea, reference compound] stands 4.24.

Source of the values: US20260008768A1, “UREA DERIVATIVES FOR INHIBITING NLRP3 AND USES THEREOF” (VENTUS THERAPEUTICS U.S., INC., priority 2023, published 2026).
